The results in this text go back to paper PMC10411625, “Rationally designed stapled peptides allosterically inhibit PTBP1–RNA-binding” (Chemical Science, 2023).

One test concerns the target T1, PTBP1 RRM1 (Homo sapiens, UniProt P26599).
T1 construct: (G41-A163); His tag; made in house; host or cells: E. coli BL21 DE3 RIL
T1 sequence (P26599 41-163): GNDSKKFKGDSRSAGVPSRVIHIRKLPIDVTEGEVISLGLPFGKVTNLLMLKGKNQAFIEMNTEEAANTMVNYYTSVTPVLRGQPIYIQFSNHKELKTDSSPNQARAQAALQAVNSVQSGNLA
Briefly: Competitive fluorescence polarization assay, RRM1 and RNA-2. It counts as binding. The conditions noted are these: Fig. 3C; competitive FP with RNA-2; read-out: P-6 Ki, construct RRM1. The text has this:
(§1) Different PTBP1 variants were used to investigate the mode of action of P-6via competitive FP experiments. As illustrated in Fig. 1A there is a short linker between RRM1 and the α3-helix which also makes contacts with the RNA. It is possible that when P-6 occupies the binding site of the helix, this linker is displaced disrupting its interactions with the RNA and lowering the RNA-binding affinity. To test this, we measured whether P-6 could inhibit RRM1 RNA-binding. […] Therefore, it seems most likely that P-6 inhibits RRM12 via disturbing the coordinated RNA-binding of the two RRM domains. As this is possibly regulated by the helix we tested if the peptide could inhibit RRM12–L151G where the role of the helix is reduced (Fig. 3C and S5 ^†). […] These findings further support a mode of action where P-6 disturbs coordinated RNA-binding by RRM1 and 2. […]
(§2) size exclusion chromatography (Superdex 75 16/60 or 26/60) with SEC buffer (50 mM Tris, 200 mM NaCl). Protein homogeneity was assessed by the size exclusion chromatogram and purity was checked by SDS-PAGE analysis to be >= 90%.
(§3) The gene encoding for SRSF1-RRM12 (1-195) was subcloned into pOPIN-His expression vector and expressed in E. coli BL21 (DE3). […]
(§4) Fluorescence polarization assay with PTBP1 […]
For orientation: Polarisation of emitted light reports the rotation of a fluorescent probe.

In a further test the target is T2, PTBP1 RRM12-L151G (Homo sapiens, UniProt P26599, L151G).
T2 construct: (P57-V265); MBP (from pMAL vector); His tag; made in house; host or cells: E. coli BL21 DE3 RIL
T2 sequence (P26599 57-265 L151G): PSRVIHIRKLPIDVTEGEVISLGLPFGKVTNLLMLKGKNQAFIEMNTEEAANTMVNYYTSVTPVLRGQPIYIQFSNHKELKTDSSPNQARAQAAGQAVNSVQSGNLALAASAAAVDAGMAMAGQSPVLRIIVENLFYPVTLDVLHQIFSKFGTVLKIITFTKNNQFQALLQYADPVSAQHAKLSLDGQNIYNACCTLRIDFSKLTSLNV
Briefly: Competitive fluorescence polarization assay, RRM12-L151G and RNA-2. It counts as binding. The settings on record: Fig. 3C; competitive FP with RNA-2; read-out: P-6 Ki, construct RRM12-L151G.
Description: as §1, §2, §3, §4

With `CC(=O)N[C@@H](CC(N)=O)C(=O)N[C@@H](CCC(N)=O)C(=O)N[C@@]1(C)CCCC=CCCCC2(CCCC=CCCC[C@](C)(C(=O)N[C@H](C(=O)N[C@@H](CC(N)=O)C(N)=O)C(C)C)NC(=O)[C@H](CCC(N)=O)NC(=O)[C@H](CC(C)C)NC(=O)[C@H](C)NC2=O)NC(=O)[C@H](CCC(N)=O)NC(=O)[C@H](C)NC(=O)[C@H](CCCNC(=N)N)NC1=O` (some centres unmarked) [Peptide P-6], the inhibitory constant (Ki) at PTBP1 RRM1 and at PTBP1 RRM12-L151G was over 750 µM in each case.

Broadly, the Ki is a measure of affinity in units of concentration, obtained from inhibition or displacement.
